The values that follow come from patent publication US8952042B2, “FXR (NR1H4) binding and activity modulating compounds” (Phenex Pharmaceuticals AG, priority 2009, dated 2015).

Series [1] can be described thus: Pharmacokinetics in rat after intravenous administration 1 mg/kg. Format: in vivo, Male Sprague Dawley Rat. The following applies: rat. The method, then:
Compounds were applied perorally by gavage at 5 mg/kg each and by i.v. Injection at 1 mg/kg each to male 12 weeks old C57BI/6J or Sprague Dawley rats and plasma concentrations of the test items were determined by LC-MS/MS after time points as indicated. In the case of Cynomolgus monkeys ([…]), the dose was adjusted to 12 mg/kg p.o., no i.v. injection was given (FIG. 1a, 1b and Table 2).
A solution of 2.5 mg/mL of each test item was produced by diluting them in the vehicle, 0.5% Hydroxypropyl-Methylcellulose (w/v) in 20 mM phosphate buffered saline pH 7.4. The solutions were stirred overnight at room temperature and heated to 40° C. for 10 minutes, resulting in fully homogenous suspension. The application was performed by administrating the solution perorally to the mice, with an application volume of 5 mL/kg. For each time point three mice or rats were used. In case of the Cynomolgus monkeys blood samples were obtained by repeated vein puncture. Blood samples were treated with L1-heparin during collection procedure and stored on ice until centrifugation at 645 g (5 min, 4° C.). Plasma was harvested and kept at −20° C. until being assayed. To 50 μL of plasma sample […] acetonitrile containing an internal standard was added. Samples were vigorously shaken and centrifuged for 10 minutes at 6000 g and 20° C. An aliquot of the particle-free supernatant was transferred to 200 μL sampler vials and subsequently subjected to LC MS/MS for quantification.

The subject of series [2] is C57BLKS lepr^−/− db/db mice. Briefly: Lipid lowering effects in db/db mice. It is filed as in vivo, mouse. The note with it: 3 days of dosing at 2×5 mg/kg/day. The method, then:
Compounds were applied perorally by gavage at 2×5 mg/kg each to C57BLKS lepr^−/− db/db mice starting at the age of 12 weeks. Animals have been set on a High-Fat Diet (ssniff EF R/M 12330 with 59% (kcal) fat from Ssniff, Soest, Germany) for two weeks prior to start of gavage. Baseline blood was taken by retroorbital bleeding. Blood samples were treated with L1-heparin during collection procedure and stored on ice until centrifugation at 645 g (5 min, 4° C.). Plasma was harvested and kept at −20° C. until being assayed. Total triglycerides and total cholesterol were measured in a 3 μL aliquot of plasma using commercial kits LabAssay™ Triglyceride (Code No 290-63701) and LabAssay™ Cholesterol (Code No 294-65801) from Wako Diagnostics (Neuss, Germany). […]

The nature of series [3]: UV photostability, irradiation at 254 nm, 1H NMR. It is filed as physicochemical. Here is the method:
The compounds of interest were dissolved using ethanol and their UV spectrum was analyzed to determine their λmax to establish an irradiation wavelength to be used in the study (see FIG. 2). The best wavelength for testing the UV stability of the —CH═CH— double bond was determined to be 254 nm. Further material of the compounds was then dissolved in deuterated ethanol and the ^1H NMRs (400 MHz) analyzed (T=0). Each sample was then recovered from the NMR tube and subjected to UV irradiation (254 nm) for 4 h, 15 h and 70 h. At the respective timepoints the individual samples were re-analyzed by ^1H NMR and the signal for the —CH═CH— protons evaluated to assess the percent of remaining intact double bond. Other changes in the chemical shift signals were also analyzed for further changes on the overall structure of the molecules.

For series [4] the following is noted: according to Akwabi-Ameyaw et al.; cited from earlier work.
For series [5] the following is noted: attributed to trans-stilbene moiety, Akwabi-Ameyaw et al.; cited from earlier work.
Setting [6] is: male, Sprague Dawley, plasma, iv, 1 mg/kg i.v.

As usually defined, the AUC(0-inf) is total exposure, with the tail of the curve extrapolated. Broadly, the MRT last is the average time that molecules of a dose stay in the body. For orientation: Tmax means the time from dosing to the highest level. One may read the Vd as a proportionality between amount in the body and measured concentration, not a real space. Lower therefore signals confinement near the circulation. For orientation: half-life means the time needed for the level to fall by half in the phase considered. A low value points to fast loss. As usually defined, the Cmax is the maximum level reached in the sampled fluid or tissue. For the compound `CC(C)c1onc(-c2c(Cl)cccc2Cl)c1COc1ccc(/C=C/c2cccc(C(=O)O)c2)c(Cl)c1` [GW4064, reference compound], in series [1] (setting [6]), the total exposure AUC(0-inf) stood at 294 ng·h/mL, the MRT last was 50.4 min, the Tmax worked out at 4.98 min and the Vd was 5.98 L/kg. Moreover, in series [1] (setting [6]), the half-life is 73.2 min. For the same compound, the concentration at 0.083 hr in series [1] (male, Sprague Dawley, plasma, iv, 1 mg/kg i.v., 0.083 hr) was 405 ng/mL. In addition, the concentration at 0.25 hr in series [1] (male, Sprague Dawley, plasma, iv, 1 mg/kg i.v., 0.25 hr) is 208 ng/mL. In series [1] (male, Sprague Dawley, plasma, iv, 1 mg/kg i.v., 0.50 hr), this compound yielded a concentration at 0.5 hr of 124 ng/mL. The same compound came in with a concentration at 1 hr in series [1] (male, Sprague Dawley, plasma, iv, 1 mg/kg i.v., 1.00 hr) of 68.3 ng/mL. The compound also gave a concentration at 2 hr in series [1] (male, Sprague Dawley, plasma, iv, 1 mg/kg i.v., 2.00 hr) of 25 ng/mL. For the same compound, the concentration at 4 hr in series [1] (male, Sprague Dawley, plasma, iv, 1 mg/kg i.v., 4.00 hr) was determined as 15 ng/mL. This compound also registered a peak concentration (Cmax) in series [1] (male, Sprague Dawley, plasma, 1 mg/kg i.v., footnote: Co for Intravenous) of 565 ng/mL. Besides, the AUC(0-t) in series [1] (male, Sprague Dawley, plasma, iv, 1 mg/kg, read-out: #AUC(0-8)) is 268 ng·h/mL. In series [1] (1 mg/kg i.v.), the “AUC Extrapolated” value was 9.0% and the CI worked out at 56.7083 mL/min/kg. For the same compound, the “change in fasting blood glucose against vehicle” value in series [2] was −6%. For the same compound, the “behaviour in 1H NMR spectrum after prolonged UV irradiation” value in series [3] (70 h UV irradiation at 254 nm) was “major changes”. For the same compound, the “compound still present in the mixture (1H NMR integration)” value in series [3] (70 h UV irradiation at 254 nm, deuterated ethanol) is “less than 30%”. Also, the compound decayed in series [3] (after 70 h UV irradiation at 254 nm) was determined as 70%. In series [4], the oral bioavailability result is on record as “low”, the plasma exposure result is “low” and the plasma half life entry is on record as “short”. In addition, the ultraviolet light stability result in series [5] is recorded as “instability”.
